Experimental data published in patent EP0863880B1, “NOVEL 1-AR(ALK)YL-IMIDAZOLIN-2-ONES CONTAINING A DISUBSTITUTED AMINE RADICAL IN THE 4TH POSITION, HAVING AN ANTI-CONVULSIVE EFFECT, AND PROCESS FOR THEIR PRODUCTION” (elbion AG, priority 1995, dated 1997).

How the values were obtained:
s.c. Pentetrazol = assay: s.c. pentetrazole (PTZ) test, mouse i.p.; assay type: in vivo; conditions: Maus i.p.
maximalen Elektroschock = assay: maximal electroshock test, rat p.o.; conditions: po, read-out: ED50 (p.o.)
Neurotoxizität = conditions: Ratte, p.o.
s.c. Pentetrazol-Test = assay: s.c. pentetrazole test, rat
[1] = octanol/water partition coefficient; assay type: physicochemical; conditions: Octanol/Wasser, read-out: log P (Verteilungskoeffizient Octanol/Wasser)
maximaler Elektroschock = assay: maximal electroshock (MES) test, mouse i.p.; assay type: in vivo; conditions: Maus i.p.

Row | Compound | logP [1] | Wirkung in % der geschützten Tiere (maximaler Elektroschock; Dosis 300 mg/kg) [%] | Wirkung in % der geschützten Tiere (s.c. Pentetrazol; Dosis 100 mg/kg) [%] | Wirkung in % der geschützten Tiere (maximaler Elektroschock; Dosis 100 mg/kg) [%] | Wirkung in % der geschützten Tiere (s.c. Pentetrazol; Dosis 300 mg/kg) [%] | further results
1 | O=C1N=C(N2CCOCC2)CN1c1ccc(Cl)cc1 [Verbindung 2, 1-(4-Chlorphenyl)-4-morpholinoimidazolin-2-on] | 1.48 | 30 | – | – | – | Wirkung in % der geschützten Tiere (s.c. Pentetrazol; Dosis 30 mg/kg): 70%; ED50 (maximalen Elektroschock): 21 mg/kg; NT50 (Neurotoxizität): > 400 mg/kg; ED50 (s.c. Pentetrazol-Test): 16 mg/kg
2 | CCCC(CCC)C(=O)O [Valproat, reference compound] | – | – | 30 | 0 | – | –
3 | CN1CCN(C2=NC(=O)N(c3ccc(Cl)cc3)C2)CC1 [Verbindung 5] | 2.17 | 100 | – | – | 100 | –
4 | O=C1N=C(N2CCCCC2)CN1c1ccc(Cl)cc1 [Verbindung 3] | 2.29 | – | 100 | 100 | – | –
5 | O=C1N=C(N2CCCCCC2)CN1c1ccc(Cl)cc1 [Verbindung 11] | 2.56 | 100 | – | – | 40 | –
6 | NC(=O)N1c2ccccc2C=Cc2ccccc21 [Carbamazepin, reference compound] | – | – | 0 | 100 | – | –
7 | COc1ccc(N2CC(N3CCCCC3)=NC2=O)cc1 [Verbindung 7] | 1.53 | 100 | 100 | – | – | –
8 | CN(C)C1=NC(=O)N(c2ccc(Cl)cc2)C1 [Verbindung 6] | 1.61 | 100 | 20 | – | – | –

Second part, led by results:

Row | logP [1] | Compound | Wirkung in % der geschützten Tiere (maximaler Elektroschock; Dosis 300 mg/kg) [%] | Wirkung in % der geschützten Tiere (s.c. Pentetrazol; Dosis 100 mg/kg) [%] | Wirkung in % der geschützten Tiere (maximaler Elektroschock; Dosis 100 mg/kg) [%] | Wirkung in % der geschützten Tiere (s.c. Pentetrazol; Dosis 300 mg/kg) [%] | further results
9 | 1.45 | O=C1N=C(N2CCOCC2)CN1c1ccc(Br)cc1 [Verbindung 8] | 30 | 100 | – | – | –
10 | 0.97 | O=C1N=C(N2CCOCC2)CN1c1ccc(F)cc1 [Verbindung 9] | – | 100 | 30 | – | –
11 | 0.48 | O=C1N=C(N2CCOCC2)CN1Cc1ccccc1 [Verbindung 4] | 30 | – | – | 30 | –
12 | 1.28 | O=C1N=C(N2CCOCC2)CN1c1cccc(Cl)c1 [Verbindung 10] | 10 | – | – | 70 | –
13 | 0.64 | O=C1N=C(N2CCOCC2)CN1c1ccccc1 [Verbindung 1] | – | 30 | 30 | – | –
